26 molecules from ChEMBL document CHEMBL5579846, “Synthesis of thiazolidine-2,4-dione tethered 1,2,3-triazoles as α-amylase inhibitors: In vitro approach coupled with QSAR, molecular docking, molecular dynamics and ADMET studies” (Eur J Med Chem, 2024) can be followed below.

What is called IC50 is the midpoint of a concentration-inhibition curve. Usually pIC50 stands for −log10 of the IC50, conventionally taken in molar units. A low value points to a high IC50.

The target of the test is T1, Alpha amylase (Homo sapiens, UniProt P0DUB6).
T1 sequence (P0DUB6 whole entry): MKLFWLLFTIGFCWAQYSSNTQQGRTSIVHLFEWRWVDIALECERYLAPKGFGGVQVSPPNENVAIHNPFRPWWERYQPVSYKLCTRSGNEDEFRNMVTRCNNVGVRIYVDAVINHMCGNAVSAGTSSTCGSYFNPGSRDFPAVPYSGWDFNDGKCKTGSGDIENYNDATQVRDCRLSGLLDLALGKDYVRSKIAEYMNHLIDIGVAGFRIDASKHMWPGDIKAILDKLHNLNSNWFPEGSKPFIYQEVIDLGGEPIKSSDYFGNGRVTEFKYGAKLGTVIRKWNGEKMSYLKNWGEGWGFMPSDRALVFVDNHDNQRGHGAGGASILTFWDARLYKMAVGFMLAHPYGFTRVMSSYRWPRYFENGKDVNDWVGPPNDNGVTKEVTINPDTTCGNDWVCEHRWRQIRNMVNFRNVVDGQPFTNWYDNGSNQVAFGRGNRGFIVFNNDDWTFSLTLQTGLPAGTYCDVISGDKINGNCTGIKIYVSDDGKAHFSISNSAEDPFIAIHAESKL
Nature of the test: Inhibition of alpha-amylase (unknown origin) using 1% starch as substrate preincubated for 30 mins followed by substrate addition and measured after 30 mins by colorimetric analysis. Type of test: protein assay.
With `CN(C)/C=C1\SC(=O)N(Cc2cn(-c3ccnc4cc(Cl)ccc34)nn2)C1=O`, the IC50 stood at 40 µM and the negative-log IC50 (pIC50) is reported as 7.399.

`Cc1cc(C)cc(-n2cc(CN3C(=O)S/C(=C\N(C)C)C3=O)nn2)c1`: the IC50 turned out to be 66 µM and the pIC50 came out at 7.182.

Consider `Cc1ccc(-n2cc(CN3C(=O)S/C(=C\N(C)C)C3=O)nn2)c(C)c1`, for which the IC50 is 48 µM and the negative logarithm of the IC50 (pIC50) amounted to 7.318.

`CCCCn1cc(CN2C(=O)S/C(=C\N(C)C)C2=O)nn1`: the 50% inhibitory concentration (IC50) came to 58 µM and the pIC50 stood at 7.24.

Consider `C#CCN1C(=O)S/C(=C\N(C)C)C1=O`, for which the IC50 came to 139 µM and the pIC50 worked out at 6.859.

For the molecule `CN(C)/C=C1\SC(=O)N(Cc2cn(-c3cccc(Cl)c3)nn2)C1=O`, the IC50 is 66 µM and the pIC50 is reported as 7.182.

Regarding `CN(C)/C=C1\SC(=O)N(Cc2cn(CC(=O)c3ccc(Br)cc3)nn2)C1=O`, the half-inhibitory concentration (IC50) came to 78 µM and the pIC50 amounted to 7.108.

`COc1cccc(-n2cc(CN3C(=O)S/C(=C\N(C)C)C3=O)nn2)c1` yielded an IC50 of 69 µM and a pIC50 of 7.164.

`CN(C)/C=C1\SC(=O)N(Cc2cn(-c3ccc(Cl)cc3)nn2)C1=O` gave an IC50 of 98 µM and a pIC50 of 7.01.

Turning to `CN(C)/C=C1\SC(=O)N(Cc2cn(-c3ccccc3C(F)(F)F)nn2)C1=O`, the IC50 is 48 µM and the pIC50 is given as 7.319.

`CN(C)/C=C1\SC(=O)N(Cc2cn(-c3ccc(C(F)(F)F)cc3)nn2)C1=O` yielded a half-inhibitory concentration (IC50) of 84 µM and a pIC50 of 7.077.

Turning to `CN(C)/C=C1\SC(=O)N(Cc2cn(-c3cccc(Cl)c3Cl)nn2)C1=O`, the IC50 is 60 µM and the pIC50 is on record as 7.222.

Molecule `Cc1cccc(-n2cc(CN3C(=O)S/C(=C\N(C)C)C3=O)nn2)c1` gave an IC50 of 61 µM and a pIC50 of 7.215.

As for `CN(C)/C=C1\SC(=O)N(Cc2cn(-c3cccc(C(F)(F)F)c3)nn2)C1=O`, the IC50 stood at 55 µM and the pIC50 is listed as 7.258.

For `CN(C)/C=C1\SC(=O)N(Cc2cn(-c3ccccc3Cl)nn2)C1=O`, the IC50 stood at 91 µM and the pIC50 was 7.039.

In the case of `CN(C)/C=C1\SC(=O)N(Cc2cn(-c3ccc(F)cc3)nn2)C1=O`, the IC50 was 93 µM and the pIC50 is 7.031.

In the case of `CN(C)/C=C1\SC(=O)N(Cc2cn(Cc3ccccc3)nn2)C1=O`, the IC50 amounted to 80 µM and the pIC50 was 7.095.

Take `CCc1ccccc1-n1cc(CN2C(=O)S/C(=C\N(C)C)C2=O)nn1`: the IC50 was 49 µM and the negative-log IC50 (pIC50) is 7.307.

`CCc1ccc(-n2cc(CN3C(=O)S/C(=C\N(C)C)C3=O)nn2)cc1` displayed an IC50 of 68 µM and a negative-log IC50 (pIC50) of 7.169.

Consider `COc1ccccc1-n1cc(CN2C(=O)S/C(=C\N(C)C)C2=O)nn1`, for which the IC50 turned out to be 65 µM and the pIC50 came out at 7.185.

Molecule `CN(C)/C=C1\SC(=O)N(Cc2cn(-c3ccccc3)nn2)C1=O` gave an IC50 of 99 µM and a negative logarithm of the IC50 (pIC50) of 7.003.

With `CC(C)c1ccc(-n2cc(CN3C(=O)S/C(=C\N(C)C)C3=O)nn2)cc1`, the IC50 was 54 µM and the pIC50 came out at 7.268.

The molecule `COc1ccc(-n2cc(CN3C(=O)S/C(=C\N(C)C)C3=O)nn2)cc1` registered an IC50 of 53 µM and a pIC50 of 7.276.

In the case of `Cc1ccc(C)c(-n2cc(CN3C(=O)S/C(=C\N(C)C)C3=O)nn2)c1`, the half-maximal inhibitory concentration (IC50) is 93 µM and the pIC50 is 7.032.

With `CN(C)/C=C1\SC(=O)N(Cc2cn(-c3ccc([N+](=O)[O-])cc3)nn2)C1=O`, the IC50 is 59 µM and the pIC50 came out at 7.227.

In turn, `CN(C)/C=C1\SC(=O)N(Cc2cn(Cc3ccc(Cl)cc3Cl)nn2)C1=O` registered a concentration for half-maximal inhibition (IC50) of 45 µM and a pIC50 of 7.349.
